Key:
[1] = test system: NCI-H1975; test: Growth of cancer cells (Cell Titer-Glo viability), NCI-H1975; format: cell-based; conditions: Homo sapiens; NCI-H1975 (EGFR L858R/T790M double mutant), 72 hrs
Outline: (§1)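 Cells are counted as viable by CellTiter-Glo chemiluminescence. Murine BaF3 lines depend on a stably transfected TEL-fused kinase after IL-3 withdrawal, and the NSCLC lines express mutant EGFR.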

[2] = test system: PC-9; test: Growth of cancer cells (Cell Titer-Glo viability), PC-9; format: cell-based; conditions: Homo sapiens; PC-9 (EGFR delE746_A750 mutant), 72 hrs
Outline: as §1

[3] = test system: NCI-H3122; test: Growth of cancer cells (Cell Titer-Glo viability), NCI-H3122; format: cell-based; conditions: Homo sapiens; NCI-H3122 (expressing ALK gene), 72 hrs; read-out: GI50
[4] = test system: BaF3; test: Cell growth (Cell Titer-Glo viability), BaF3; format: cell-based; conditions: BaF3 mouse primary B cell, 72 hrs
[5] = test system: BaF3-TEL-ALK; test: Cell growth (Cell Titer-Glo viability), BaF3-TEL-ALK; format: cell-based; conditions: Mus musculus; BaF3-TEL-ALK (stably expressing ALK kinase), 72 hrs
Outline: (§2)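 Luminescent ATP-based viability (CellTiter-Glo) measured viable cell number after compound exposure. Engineered lines were murine BaF3 made growth-factor independent by a TEL-kinase fusion and IL-3 removal. The human lung cancer lines harbor EGFR del19 (HCC827) or EGFR L858R (NCI-H3255).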

[6] = test system: BaF3-NPM-ALK; test: Cell growth (Cell Titer-Glo viability), BaF3-NPM-ALK; format: cell-based; conditions: Mus musculus; BaF3-NPM-ALK (stably expressing ALK kinase), 72 hrs
[7] = test system: BaF3-TEL-INSR; test: Cell growth (Cell Titer-Glo viability), BaF3-TEL-INSR; format: cell-based; conditions: Mus musculus; BaF3-TEL-INSR (stably expressing INSR protein), 72 hrs
Text: (§3) By testing the effect of the novel kinase inhibitors on the proliferation of cancer cells, the selectivity of the compounds of the present disclosure in inhibiting the proliferation of cancer cells was further assessed. In this example, human non-small cell lung cancer cell NCI-H1975 (expressing EGFR L858R/T790M double mutant gene), human skin squamous carcinoma cell A431 (expressing wild-type EGFR gene), non-small cell lung cancer NCI-H3255 (expressing EGFR L858R mutant gene), non-small cell lung cancer cell NCI-H3122 (expressing ALK gene), human non-small cell lung cancer cell A549 (expressing wild-type EGFR gene), human non-small cell lung cancer cell NCI-H2122 (expressing wild-type EGFR gene), human non-small cell lung cancer cell NCI-H460 (expressing wild-type EGFR gene), human non-small cell lung cancer cell PC-9 (expressing EGFR delE746_A750 mutant gene), Chinese hamster ovary cell CHO (Cricetulus griseus, hamster, Chinese, ovary), Chinese hamster lung cell CHL, human non-small cell lung cancer cell HCC827 (expressing mutant EGFR del19 gene), human lung adenocarcinoma cell HCC4006 (expressing mutant EGFR del19 gene), human non-small cell lung cancer cell NCI-H2228 (expressing wild-type ALK gene), and mouse primary B cell BaF3 were used, and the above cells were all purchased from ATCC (US). In addition, mouse BaF3-TEL-ALK (stably expressing ALK kinase), mouse BaF3-ALK-F1174L (stably expressing mutant ALK F1174L kinase), mouse BaF3-NPM-ALK (stably expressing ALK kinase), mouse BaF3-TEL-EGFR (stably expressing EGFR kinase), mouse BaF3-TEL-EGFR-T790M (stably expressing EGFR T790M mutant kinase), mouse BaF3-FL-EGFR-Del19 (stably expressing EGFR delE746_A750 mutant kinase), mouse BaF3-TEL-EGFR-L858R (stably expressing EGFR L858R mutant kinase), mouse BaF3-FL-EGFR-T790M-L858R (stably expressing EGFR T790M/L858R mutant kinase), mouse BaF3-TEL-INSR (stably expressing INSR protein), mouse BaF3-TEL-IGF1R (stably expressing IGF1R Protein), mouse BaF3-EML4-ALK (stably expressing EML4-ALK Protein), mouse BaF3-TEL-JAK3 (stably expressing JAK3 kinase protein), mouse BaF3-TEL-CSF1R (stably expressing CSF1R protein), and mouse BaF3-TEL-ALK-F1196M (stably expressing ALK F1196M mutant kinase) were also used in this example. The above cell lines were all established by our laboratory via the following process: kinase proteins or protein domain sequences of human ALK, ALK F1174L, EGFR, EGFR T790M, EGFR delE746_A750, EGFR L858, EGFR T790M/L858R, INSR, IGF1R, EML4-ALK, JAK3, CSF1R, ALK F1196M were amplified respectively by PCR, and were respectively inserted into MSCV-Puro vector (Clontech) with N-terminal TEL fragments and/or NPM fragments and/or TPR fragments; the resultants were stably transfected into mouse BaF3 cells by the means of retrovirus, and the IL-3 growth factors were removed, and eventually the ALK, ALK F1174L, EGFR, EGFR T790M, EGFR delE746_A750, EGFR L858, EGFR T790M/L858R, INSR, IGF1R, EML4-ALK, JAK3, CSF1R, ALK F1196M-transferred protein dependent cell lines were obtained.
(§4) The number of viable cells was determined quantitatively by a microplate reader using Cell Titer-Glo® (Promega, US) chemiluminescence cell viability assay kit.

[8] = test system: BaF3-TEL-ALK-F1196M; test: Cell growth (Cell Titer-Glo viability), BaF3-TEL-ALK-F1196M; format: cell-based; conditions: Mus musculus; BaF3-TEL-ALK-F1196M (ALK F1196M mutant kinase), 72 hrs
Text: By testing the effect of the novel kinase inhibitors on the proliferation of cancer cells, the selectivity of the compounds of the present disclosure in inhibiting the proliferation of cancer cells was further assessed. In this example, human non-small cell lung cancer cell NCI-H1975 (expressing EGFR L858R/T790M double mutant gene), human skin squamous carcinoma cell A431 (expressing wild-type EGFR gene), non-small cell lung cancer NCI-H3255 (expressing EGFR L858R mutant gene), non-small cell lung cancer cell NCI-H3122 (expressing ALK gene), human non-small cell lung cancer cell A549 (expressing wild-type EGFR gene), human non-small cell lung cancer cell NCI-H2122 (expressing wild-type EGFR gene), human non-small cell lung cancer cell NCI-H460 (expressing wild-type EGFR gene), human non-small cell lung cancer cell PC-9 (expressing EGFR delE746_A750 mutant gene), Chinese hamster ovary cell CHO (Cricetulus griseus, hamster, Chinese, ovary), Chinese hamster lung cell CHL, human non-small cell lung cancer cell HCC827 (expressing mutant EGFR del19 gene), human lung adenocarcinoma cell HCC4006 (expressing mutant EGFR del19 gene), human non-small cell lung cancer cell NCI-H2228 (expressing wild-type ALK gene), and mouse primary B cell BaF3 were used, and the above cells were all purchased from ATCC (US). […]
as §4

[9] = test system: NCI-H460; test: Growth of cancer cells (Cell Titer-Glo viability), NCI-H460; format: cell-based; conditions: Homo sapiens; NCI-H460 (wild-type EGFR), 72 hrs
Text: as §3, §4

[10] = test system: NCI-H2122; test: Growth of cancer cells (Cell Titer-Glo viability), NCI-H2122; format: cell-based; conditions: Homo sapiens; NCI-H2122 (wild-type EGFR), 72 hrs
[11] = test system: NCI-H3255; test: Growth of cancer cells (Cell Titer-Glo viability), NCI-H3255; format: cell-based; conditions: Homo sapiens; NCI-H3255 (EGFR L858R mutant), 72 hrs
Text: as §3, §4

[12] = test system: HCC827; test: Growth of cancer cells (Cell Titer-Glo viability), HCC827; format: cell-based; conditions: Homo sapiens; HCC827 (mutant EGFR del19), 72 hrs
Outline: as §2

[13] = test system: HCC4006; test: Growth of cancer cells (Cell Titer-Glo viability), HCC4006; format: cell-based; conditions: Homo sapiens; HCC4006 (mutant EGFR del19), 72 hrs
Text: as §3, §4

[14] = test system: NCI-H2228; test: Growth of cancer cells (Cell Titer-Glo viability), NCI-H2228; format: cell-based; conditions: Homo sapiens; NCI-H2228 (wild-type ALK), 72 hrs
[15] = test system: BaF3-TEL-EGFR; test: Cell growth (Cell Titer-Glo viability), BaF3-TEL-EGFR; format: cell-based; conditions: Mus musculus; BaF3-TEL-EGFR (stably expressing EGFR kinase), 72 hrs
Text: as §3, §4

[16] = test system: BaF3-TEL-EGFR-T790M; test: Cell growth (Cell Titer-Glo viability), BaF3-TEL-EGFR-T790M; format: cell-based; conditions: Mus musculus; BaF3-TEL-EGFR-T790M (EGFR T790M mutant kinase), 72 hrs
Outline: as §2

[17] = test system: EGFR protein (wild-type EGFR, A549); test: Effect on signaling pathway in cells, A549; format: cell-based, human; conditions: control at 1 μM, 4 h, compared with Compound 1 (little effect)
Text: In four cell lines (all purchased from ATCC) including non-small cell lung cancer cell line A549 (expressing wild-type EGFR gene), non-small cell lung cancer cell line H1975 (expressing EGFR L858R/T790M double mutant gene), non-small cell lung cancer cell line H3255 (expressing EGFR L858R mutant gene) and non-small cell lung cancer cell line PC-9 (expressing EGFR delE746_A750 mutant gene), the effect of Compound 1 on EGFR or other protein kinases related to signaling pathways of EGFR such as Stat3, AKT, ErK, eIF4E, 4EBP1, P70S6K was assessed by assaying a number of cellular biochemical and functional endpoints. […] The effect of Compound 1 on phosphorylation of Stat3Y705, AKT T308, AKT 5473, Erk T202/204, EGFR Y1068, P70S6K Thr389, eIF4E Ser209, Erk T202/204, 4EBP1 (Thr37/46) in these cell lines was assayed (FIGS. 1a to 1d).

[18] = test system: A431; test: Growth of cancer cells (Cell Titer-Glo viability), A431; format: cell-based; conditions: Homo sapiens, A-431; A431 (wild-type EGFR), 72 hrs; read-out: GI50
[19] = test system: CHO; test: Cell growth (Cell Titer-Glo viability), CHO; format: cell-based, Chinese hamster; conditions: Cricetulus griseus; CHO Chinese hamster ovary cell, 72 hrs; read-out: GI50
[20] = test system: CHL; test: Cell growth (Cell Titer-Glo viability), CHL; format: cell-based, Chinese hamster; conditions: Cricetulus griseus; CHL Chinese hamster lung cell, 72 hrs; read-out: GI50
[21] = test system: A549; test: Growth of cancer cells (Cell Titer-Glo viability), A549; format: cell-based; conditions: Homo sapiens; A549 (wild-type EGFR), 72 hrs
[22] = test system: BaF3-ALK-F1174L; test: Cell growth (Cell Titer-Glo viability), BaF3-ALK-F1174L; format: cell-based; conditions: Mus musculus; BaF3-ALK-F1174L (mutant ALK F1174L kinase), 72 hrs
Outline: as §2

[23] = test system: BaF3-FL-EGFR-T790M-L858R; test: Cell growth (Cell Titer-Glo viability), BaF3-FL-EGFR-T790M-L858R; format: cell-based; conditions: Mus musculus; BaF3-FL-EGFR-T790M-L858R (EGFR T790M/L858R mutant kinase), 72 hrs
Method: By testing the effect of the novel kinase inhibitors on the proliferation of cancer cells, the selectivity of the compounds of the present disclosure in inhibiting the proliferation of cancer cells was further assessed. […]
as §4

SMILES | GI50 [1] | GI50 [2] | GI50 [3] | GI50 [4] | GI50 [5] | GI50 [6] | GI50 [7] | GI50 [8] | GI50 [10] | GI50 [14] | further results
C=CC(=O)Nc1cc(Nc2ncc(C)c(Nc3ccccc3S(=O)(=O)C(C)C)n2)c(OC)cc1N1CCN(CC)CC1 [Compound 84, N-(2-(4-ethylpiperazin-1-yl)-5-(4-(2-(isopropylsulfonyl)phenylamino)-5-methylpyrimidin-2-ylamino)-4-methoxyphenyl)acrylamide] | 43 nM | 6 nM | 2 nM | 6600 nM | 1 nM | 2 nM | 4 nM | 2 nM | – | – | –
C=CC(=O)Nc1cccc(Oc2nc(Nc3ccc(N4CCN(C)CC4)cc3OC)ncc2Cl)c1 [WZ4002, reference compound] | 21 nM | 27 nM | 3200 nM | – | – | 1400 nM | – | – | 5700 nM | 1100 nM | GI50 [9]: 8100 nM; GI50 [11]: 390 nM; GI50 [12]: 1.2 nM; GI50 [13]: 7.2 nM; GI50 [15]: 1600 nM; GI50 [16]: 46 nM; effect on phosphorylation of EGFR protein and of STAT3, S6K, AKT, ERK, eIF4E [17]: behaved similarly
C=CC(=O)Nc1cc(Nc2ncc(F)c(Nc3ccccc3S(=O)(=O)C(C)C)n2)c(OC)cc1N1CCN(CC)CC1 [Compound 82, N-(2-(4-ethylpiperazin-1-yl)-5-(5-fluoro-4-(2-(isopropylsulfonyl)phenylamino)pyrimidin-2-ylamino)-4-methoxyphenyl)acrylamide] | 48 nM | 14 nM | 2 nM | 3000 nM | 1 nM | 1 nM | 7 nM | 6 nM | – | – | –
C=CC(=O)Nc1cc(Nc2ncc(Cl)c(Nc3ccccc3S(=O)(=O)C(C)C)n2)c(OC)cc1N1CCN(C(C)C)CC1 [Compound 11, N-(5-(5-chloro-4-(2-(isopropylsulfonyl)phenylamino)pyrimidin-2-ylamino)-2-(4-isopropylpiperazin-1-yl)-4-methoxyphenyl)acrylamide] | 25 nM | 24 nM | < 0.3 nM | 450 nM | < 3 nM | < 0.3 nM | – | – | 190 nM | < 3 nM | GI50 [18]: 140 nM; GI50 [19]: 1300 nM; GI50 [20]: 1100 nM; GI50 [21]: 210 nM; GI50 [22]: 530 nM; GI50 [23]: 2 nM
C=CC(=O)Nc1cc(Nc2ncc(Br)c(Nc3ccccc3S(=O)(=O)C(C)C)n2)c(OC)cc1N1CCN(CC)CC1 [Compound 83, N-(5-(5-bromo-4-(2-(isopropylsulfonyl)phenylamino)pyrimidin-2-ylamino)-2-(4-ethylpiperazin-1-yl)-4-methoxyphenyl)acrylamide] | < 0.3 nM | 58 nM | 2 nM | 380 nM | 1 nM | < 0.3 nM | < 0.3 nM | < 0.3 nM | – | – | –

— patent US10350210B2, “EGFR and ALK dual inhibitor” (PRECEDO PHARMACEUTICALS CO., LTD, priority 2015, dated 2019)
